SMILES strings stand for the structures.

This passage reports photoluminescence quantum yield results from the Deep4Chem optical property database.

The data set is described as follows: photoluminescence quantum yield (fraction); solvent given as SMILES.
[1] abbreviates: in c1ccc2c(c1)c1ccccc1n2-c1ccc(-c2ccc(-n3c4ccccc4c4ccccc43)cc2)cc1.

With `CC(C)(C)Nc1cc2oc3cc(NC(C)(C)C)c(F)cc3c(=O)c2cc1F`, the photoluminescence quantum yield (in CCO) is 0.31.

In the case of `CC1=C(c2ccc(N(C)C)cc2)C(C)=[N+]2C1=C(c1c(-c3ccccn3)nc3ccccn13)c1c(C)cc(C)n1[B-]2(F)F`, the photoluminescence quantum yield (in ClCCl) amounted to 0.0041.

`Cc1ccc2c(c1)c(C#N)c(C#N)c1cc(C)ccc12` yielded a photoluminescence quantum yield (in ClC(Cl)Cl) of 0.15.

The compound `O=c1c2ccc(-c3ccc(N(c4ccccc4)c4ccccc4)cc3)cc2sc2cccc(-c3ccc(N(c4ccccc4)c4ccccc4)cc3)c12` gave a photoluminescence quantum yield under setting [1] of 0.025.

For the setting “in CC1CCCCC1”, `c12c3c4c5c1c1c6c7c2c2c8c3c3c9c4c4c%10c5c5c1c1c6c6c%11c%12c%13c%14c%15c%16c%17c%14c%14c%18c%13c%11c1c1c5c%10c5c(c%14c%10c%17c%11c%13c%16c%14c%16c%15c%12c%12c%16c(c2c7c%126)c2c8c3c(c%13c%142)c2c9c4c5c%10c%112)c%181` came in with a photoluminescence quantum yield of 0.0006.

Take `O=C1C=CC2=Cc3ccccc3B(O)N12`: the photoluminescence quantum yield reads like this: (in CC#N) 0.97; (in CO) 0.1; (in CS(C)=O) 0.01; (in ClC(Cl)Cl) 0.65.

On to `CN(C)c1ccc(/C=C/c2cnccn2)cc1`, for which the photoluminescence quantum yield (in ClCCl) amounted to 0.17.

`O=C1c2ccccc2C2=C(c3ccccn3)NN=C(c3ccccn3)C2c2ccccc21` (centres undefined): the photoluminescence quantum yield (in CC#N) was found to be 0.41.

On to `F[Si](c1ccccc1)(c1ccccc1)c1c2ccccc2cc2ccccc12`, for which the photoluminescence quantum yield was found to be 0.86 (in C1CCOC1) and 0.52 (in ClC(Cl)Cl).

For `O=C(c1ccc(N(c2ccccc2)c2ccccc2)cc1)[C@H]1[C@H](c2cccs2)C[C@](O)(c2ccccn2)C[C@]1(O)c1ccccn1`, the photoluminescence quantum yield was found to be 0.24 (in C1CCOC1); 0.01 (in CC#N); 0.01 (in CCO); 0.35 (in CCOC(C)=O); 0.02 (in CN(C)C=O); 0.22 (in ClCCl). The compound further yielded a photoluminescence quantum yield (in c1ccccc1) of 0.9.

In the case of `F[B-]1(F)n2cccc2C(c2ccccc2)=C2C=CC(c3cccc(OC4=[N+]5C(=C(c6ccccc6)c6cc(Br)c(-c7ccc[nH]7)n6[B-]5(F)F)C=C4Br)c3)=[N+]21`, the photoluminescence quantum yield (in ClC(Cl)Cl) amounted to 0.18.

Take `F[B-]1(F)n2c(-c3cccs3)cc(-c3ccccc3)c2N=C2C(c3ccccc3)=CC(c3cccs3)=[N+]21`: the photoluminescence quantum yield is, setting by setting: (in CC#N) 0.46; (in ClCCl) 0.44.

For the setting “in C1CCOC1”, `CC(C)(C)c1ccc(-c2c(-c3ccc(-n4c5ccccc5c5ccccc54)cc3)c(C#N)c(-c3ccc(-n4c5ccccc5c5ccccc54)cc3)c(-c3ccc(C(C)(C)C)cc3)c2-c2ccc(C(C)(C)C)cc2)cc1` registered a photoluminescence quantum yield of 0.803.

Turning to `CCCCCCOc1ccc(C#Cc2ccc(C#CC#Cc3ccc(C#Cc4ccc(OCCCCCC)c(OCCCCCC)c4)c4nsnc34)c3nsnc23)cc1OCCCCCC`, the photoluminescence quantum yield by setting is: (in CN(C)C=O) 0.006; (in COc1ccccc1) 0.43; (in Cc1ccccc1) 0.58; (in ClC(Cl)Cl) 0.49; (in ClCCCl) 0.27; (in ClCCl) 0.36.

On to `COc1ccc(C2CC(c3ccc(O)cc3)=NN2c2ccc(S(N)(=O)=O)cc2)cc1` (centres undefined), for which the photoluminescence quantum yield amounted to 0.78 (in C1CCOC1); 0.73 (in C1COCCO1); 0.7 (in CC#N); 0.55 (in CC(C)O); 0.47 (in CCO); 0.76 (in CCOC(C)=O). Moreover, the photoluminescence quantum yield runs as follows: (in CN(C)C=O) 0.87; (in CO) 0.38; (in CS(C)=O) 0.88; (in O) 0.54.

Consider `CCCCCCN1C(=O)C(c2ccc(-n3c4ccccc4c4ccccc43)cc2)=C(c2ccc(-n3c4ccccc4c4ccccc43)cc2)C1=O`, for which the photoluminescence quantum yield (in ClC(Cl)Cl) came out at 0.42 and the photoluminescence quantum yield under setting [1] is 0.66.

`COc1ccc2oc(=N)c(C#N)cc2c1`: the photoluminescence quantum yield (in ClCCl) was found to be 0.062.

Consider `CCOC(=O)C1=C(C(=O)OCC)C2(c3cc(Cl)ccc3-c3ccc(Cl)cc32)C2(/C=C/c3ccccc3)c3cc(OC)c(OC)cc3CCN12` (centres undefined), for which the photoluminescence quantum yield (in ClCCl) turned out to be 0.00196.

In turn, `CC(C)(C)C#Cc1cc2c(C#CC(C)(C)C)c(C#CC(C)(C)C)c3cc(C#CC(C)(C)C)cc4c(C#CC(C)(C)C)c(C#CC(C)(C)C)c(c1)c2c34` displayed a photoluminescence quantum yield (in ClCCl) of 0.12.

`Cc1ccc2ccccc2c1`: the photoluminescence quantum yield (in C1CCCCC1) was determined as 0.52.

In turn, `Oc1cccc(O)c1-c1c2ccc(=[N+]3CCCCC3)cc-2oc2cc(N3CCCCC3)ccc12` returned a photoluminescence quantum yield (in CCO) of 0.26.

For the compound `N#Cc1c(-n2c3ccccc3c3ccccc32)c(-n2c3ccccc3c3ccccc32)c(-n2c3ccccc3c3ccccc32)c(-n2c3ccc(-c4ccccc4)cc3c3cc(-c4ccccc4)ccc32)c1-n1c2ccccc2c2ccccc21`, the photoluminescence quantum yield (in Cc1ccccc1) worked out at 0.85.

The compound `O=CC12N=N[C@](C=O)(C3C4CCC(C4)C31)C1[C@@H]3CC[C@@H](C3)[C@H]12` (some centres undefined) yielded a photoluminescence quantum yield (in CC#N) of 0.049.

`N#Cc1ccc(N)c2nonc12`: the photoluminescence quantum yield by setting is: (in C1COCCO1) 0.218; (in CC#N) 0.105; (in CCCCCC) 0.329; (in CCO) 0.059; (in Cc1ccccc1) 0.304; (in ClCCl) 0.195. Where the note is “in O”, the photoluminescence quantum yield stood at 0.002.

Turning to `N#Cc1ccc(-c2cn3cc(C#N)c[n+]3[n-]2)cc1`, the photoluminescence quantum yield (in ClCCl) was 0.45.

For the compound `CN(C)c1ccc(C2=Nc3sc4ccccc4[n+]3[B-](F)(F)O2)cc1`, the photoluminescence quantum yield (in C1CCOC1) worked out at 0.78; the photoluminescence quantum yield (in CC#N) was 0.17; the photoluminescence quantum yield (in CC(C)=O) worked out at 0.31; the photoluminescence quantum yield (in Cc1ccccc1) turned out to be 0.84; the photoluminescence quantum yield (in ClCCl) came to 0.77.

Take `O=c1c2cc(I)ccc2nc2n1[B-](F)(F)[n+]1ccccc1-2`: the photoluminescence quantum yield (in CC#N) is 0.58 and the photoluminescence quantum yield (in ClCCl) was found to be 0.73.

`CCOC(=O)c1cc(C(=O)OCC)c2cc(N)ccc2n1` yielded a photoluminescence quantum yield (in CCO) of 0.4.

For `CN(C)c1ccc2nc(/C=C/c3ccccc3)c(=O)oc2c1`, the photoluminescence quantum yield (in C1CCCCC1) was 0.77; the photoluminescence quantum yield (in C1COCCO1) was 0.79; the photoluminescence quantum yield (in CC#N) amounted to 0.54; the photoluminescence quantum yield (in CC(C)=O) was 0.71; the photoluminescence quantum yield (in CCCCCCC) was determined as 0.74; the photoluminescence quantum yield (in CCO) turned out to be 0.55. In addition, the photoluminescence quantum yield by setting is: (in CCOC(C)=O) 0.75; (in CN(C)C=O) 0.66; (in CS(C)=O) 0.61; (in Cc1ccccc1) 0.77; (in ClC(Cl)Cl) 0.81; (in ClCCl) 0.81.

Regarding `CCCCCCCCCCOc1cc(OCCCCCCCCCC)cc(C2=C3C(/C=C/c4ccc(N(C)C)cc4)=C(C#Cc4ccc(C(C)(C)C)cc4)C(/C=C/c4ccc(N(C)C)cc4)=[N+]3[B-](F)(F)n3c(/C=C/c4ccc(N(C)C)cc4)c(C#Cc4ccc(C(C)(C)C)cc4)c(/C=C/c4ccc(N(C)C)cc4)c32)c1`, the photoluminescence quantum yield (in ClC(Cl)Cl) is 0.05.

As for `C(=C\c1ccc(-c2cccc3ccccc23)s1)/c1cccs1`, the photoluminescence quantum yield (in ClCCl) turned out to be 0.25.
